According to PubChem BioAssay (NCI):
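Exposure lasted 48 hours, with cells grown in 96-well plates and compounds tested at five concentrations. The concentration for full growth arrest is given as TGI.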

What was measured:
Assay in all cases: DTP human tumour cell line panel, 48 h
A498 renal = system: A498 renal
COLO 205 colon = system: COLO 205 colon
EKVX NSCLC = system: EKVX NSCLC
HOP-62 NSCLC = system: HOP-62 NSCLC
IGROV1 ovarian = system: IGROV1 ovarian
OVCAR-3 ovarian = system: OVCAR-3 ovarian
DU-145 prostate = system: DU-145 prostate
HCC-2998 colon = system: HCC-2998 colon
MDA-MB-435 = system: MDA-MB-435
SK-OV-3 ovarian = system: SK-OV-3 ovarian
T-47D breast = system: T-47D breast

SMILES	TGI (A498 renal)	TGI (COLO 205 colon)	TGI (EKVX NSCLC)	TGI (HOP-62 NSCLC)	TGI (IGROV1 ovarian)	TGI (OVCAR-3 ovarian)	TGI (DU-145 prostate)	TGI (HCC-2998 colon)	TGI (MDA-MB-435)	TGI (SK-OV-3 ovarian)	TGI (T-47D breast)
COc1cc(CCc2cccnc2)cc(OC)c1OC	> 100 µM	> 100 µM	> 100 µM	> 100 µM	> 100 µM	> 100 µM	–	–	–	–	–
Nc1nc(N)c2ncn(CC3CCC(CO)C3)c2n1 (stereo not drawn)	> 100 µM	> 100 µM	> 100 µM	> 100 µM	–	> 100 µM	> 100 µM	> 100 µM	> 100 µM	> 100 µM	> 100 µM
CN(C)CC(/C(Cc1ccccc1)=N\NC(=O)C[n+]1ccccc1)c1ccccc1 (stereo not drawn)	> 100 µM	> 100 µM	> 100 µM	> 100 µM	> 100 µM	> 100 µM	–	> 100 µM	–	> 100 µM	–
[O-]/[N+](=C\c1ccccc1)[C@H](COCc1ccccc1)c1ccccc1	> 100 µM	> 100 µM	> 100 µM	> 100 µM	> 100 µM	> 100 µM	–	> 100 µM	–	> 100 µM	–
CC[C@@]1(O)C(=O)OCc2c1cc1n(c2=O)Cc2c-1nc1ccccc1c2/C=N\NC(=O)C(N)CC(C)C (stereo partly drawn)	0.263 µM	12.1 µM	> 100 µM	0.382 µM	> 22 µM	2.3 µM	> 100 µM	6.17 µM	2.8 µM	–	> 100 µM
O=C(Cn1c(=O)oc2ccc(C(=O)c3ccc(F)cc3)cc21)c1ccc([N+](=O)[O-])cc1	> 100 µM	> 100 µM	–	> 100 µM	78.3 µM	–	> 100 µM	37.9 µM	72.9 µM	> 100 µM	> 100 µM
Cc1ccc(S(=O)(=O)c2scc(-c3ccccc3)c2C)cc1	–	> 100 µM	> 100 µM	> 100 µM	> 100 µM	> 100 µM	> 100 µM	> 100 µM	> 100 µM	> 100 µM	> 100 µM
C=CCNC(=S)Nc1sc2c(c1C(=O)OCC)CC(C)CC2 (stereo not drawn)	–	35.6 µM	65.9 µM	65.1 µM	> 100 µM	50.1 µM	> 100 µM	44.1 µM	> 100 µM	69.4 µM	66.7 µM
COc1cc(/C=C2/SC(c3ccccc3)N(c3ccc(NC(C)=O)cc3)C2=O)cc(OC)c1OC (stereo not drawn)	> 100 µM	> 100 µM	> 100 µM	> 100 µM	–	> 100 µM	> 100 µM	> 100 µM	> 100 µM	> 100 µM	> 100 µM
C=C1C(=O)OC2/C=C(\C)C(OC(C)=O)C3OC3C(C)(O)CC(OC(=O)/C(C)=C/C)C12 (stereo not drawn)	32.1 µM	12.9 µM	34.9 µM	37.4 µM	35.7 µM	15.8 µM	–	21.3 µM	–	34.5 µM	–
COc1cc(/C=C/C(=O)OCC23CC[C@@]4(C(=O)O)CCC(C)[C@H](C)C4C2=CCC2[C@@]4(C)CC[C@H](O)C(C)(C)C4CC[C@]23C)ccc1O (stereo partly drawn)	68.5 µM	–	33.1 µM	28.6 µM	57.2 µM	14.3 µM	23.2 µM	> 100 µM	57 µM	83.4 µM	> 100 µM
COc1ccc(-c2nc(N)c(C#N)c3c2CCS(=O)(=O)c2ccc(C)cc2-3)cc1OC	62.5 µM	79.5 µM	–	> 100 µM	> 100 µM	> 100 µM	> 100 µM	> 100 µM	91.6 µM	–	> 100 µM
O=C(COc1ccc(OCC(=O)N2C(=O)CC(=O)N(c3ccccc3)C2=S)cc1)N1C(=O)CC(=O)N(c2ccccc2)C1=S	> 100 µM	> 100 µM	> 100 µM	–	> 100 µM	–	> 100 µM	> 100 µM	> 100 µM	> 100 µM	–
CC12CC3C(CC1SCC(=O)O2)C3(C)C (stereo not drawn)	> 100 µM	> 100 µM	> 100 µM	–	> 100 µM	> 100 µM	–	> 100 µM	–	> 100 µM	–
O=C(Nc1c(O)[nH]c(=S)[nH]c1=O)c1ccccn1	> 100 µM	> 100 µM	–	> 100 µM	> 100 µM	> 100 µM	–	–	–	> 100 µM	–
CCOC(=O)c1cnc(-n2[nH]c(C)c(CCO)c2=O)[nH]c1=O	–	> 100 µM	> 100 µM	> 100 µM	> 100 µM	> 100 µM	> 100 µM	> 100 µM	> 100 µM	> 100 µM	> 100 µM
CC1(C)O[C@H]2Cn3c(c(C#N)c4ccccc43)[C@H]2O1	–	> 100 µM	> 100 µM	> 100 µM	> 100 µM	> 100 µM	> 100 µM	> 100 µM	> 100 µM	> 100 µM	> 100 µM
O=C1c2ccccc2C2(O)Nc3cc(O)ccc3C12O (stereo not drawn)	> 100 µM	> 100 µM	> 100 µM	> 100 µM	> 100 µM	> 100 µM	–	–	–	> 100 µM	–
C/C=C/[C@@]1(OC(=O)c2ccccc2)C[C@@H]2CCCC[C@@H]21	–	–	31.7 µM	29 µM	32.1 µM	–	31.4 µM	44.3 µM	–	32.6 µM	36.5 µM
S=c1sc2c(Cl)ncnc2n1-c1ccccc1	30.9 µM	29 µM	31.5 µM	29.3 µM	28.2 µM	28.9 µM	–	31.1 µM	–	34.3 µM	–
O=C1C2CCCCC2C(=O)N1n1c(Cc2ccc(Cl)cc2)n[nH]c1=O (stereo not drawn)	> 100 µM	> 100 µM	> 100 µM	> 100 µM	> 100 µM	> 100 µM	–	> 100 µM	> 100 µM	> 100 µM	> 100 µM
COc1ccc2oc(=N)c(C(=O)Nc3cccc4ccccc34)cc2c1	39.2 µM	> 100 µM	> 100 µM	26.9 µM	–	30.8 µM	> 100 µM	> 100 µM	11.1 µM	92.7 µM	> 100 µM
COc1ccc(Cn2c(C)nc3c2C(=O)c2ccccc2C3=O)cc1	–	22.6 µM	49.2 µM	51.7 µM	38.6 µM	24 µM	–	> 75 µM	–	> 75 µM	–
